Legend:
Format in all cases: in vivo
Abutilon theophrasti = assay: Test Example 5: herbicidal effect by foliage application, plastic box (symbol M); details: 320 g/ha, 3 weeks after application
Outline: (§1)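 Herbicide, formulated as an emulsion and diluted in water, is sprayed onto the aerial parts of 14-day seedlings. These were grown at 25° C. to 30° C. in sterilized diluvial soil; effects are graded after 3 weeks.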

Stellaria media = assay: Test Example 5: herbicidal effect by foliage application, plastic box (symbol P); details: 320 g/ha, 3 weeks after application
Outline: as §1

Alopecurus myosuroides = assay: Test Example 4: herbicidal effect by soil treatment (symbol J); details: for J: Alopecurus myosuroides, herbicidal effect grade: 320 g/ha
Outline: (§2)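 Seeds were sown in sterilized diluvial soil, covered with about 1.5 cm of soil, and the soil surface was sprayed with a water-diluted emulsion of the compound at a predetermined rate. Plants grew in a greenhouse at 25° C. to 30° C.; effects were scored visually 3 weeks after application.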

Lolium multiflorum Lam. [1] = assay: Test Example 5: herbicidal effect by foliage application, plastic box (symbol K); details: 320 g/ha, 3 weeks after application
Outline: as §1

Avena fatua = assay: Test Example 4: herbicidal effect by soil treatment (symbol I); details: for I: Avena fatua, herbicidal effect grade: 320 g/ha
Outline: as §2

rapeseed = assay: Test Example 4: effect on crop by soil treatment (symbol g); details: for g: rapeseed, effect grade on crop: 320 g/ha
Outline: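 Diluvial soil (sterilized) in boxes; seeds placed spot-wise alongside weed species; ~1.5 cm covering soil. Greenhouse, 25–30° C.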

[2] = tested on: Echinochloa oryzacola Vasing.; assay: Test Example 2: herbicidal activity, application during weed generation in submerged conditions (symbol A); details: Table 23; application herbicide amount 320 g/ha; grade 0-5 by criteria of Test Example 1
Outline: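 Scoring of herbicidal effect took place 3 weeks after treatment, using the criteria of the earlier test. Treatment was water-surface application of diluted emulsifiable compound at a set dose. Plants were at one- to two-leaf stage in submerged alluvial soil (4 cm depth), greenhouse 25-30° C.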

[3] = tested on: Echinochloa crus-galli var. crus-galli; assay: Test Example 4: herbicidal effect by soil treatment (symbol H); details: for H: Echinochloa crus-galli var. crus-galli, herbicidal effect grade: 320 g/ha
Outline: as §2

Setaria viridis = assay: Test Example 5: herbicidal effect by foliage application, plastic box (symbol G); details: 320 g/ha, 3 weeks after application
Outline: as §1

corn = assay: Test Example 4: effect on crop by soil treatment (symbol c); details: for c: corn, effect grade on crop: 320 g/ha
Outline: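 Plants are raised in a greenhouse (25° C. to 30° C.) from spot-sown seed, which sits under about 1.5 cm of sterilized diluvial soil in a box shared with weed species.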

Veronica persica [4] = assay: Test Example 4: herbicidal effect by soil treatment (symbol R); details: for R: Veronica persica, herbicidal effect grade: 320 g/ha
Outline: as §2

[5] = tested on: Echinochloa oryzacola Vasing.; assay: Test Example 1: herbicidal activity, application before weed generation in submerged conditions (symbol A); details: application herbicide amount 320 g/ha
Outline: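 Steps: alluvial soil flooded to 4 cm; weed seeds sown together; rice seedlings (2.5 leaf) transplanted; diluted emulsion applied to water surface the same day as sowing; plants grown at 25–30 °C in greenhouse; herbicidal effect rated on a 0–5 scale at 3 weeks.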

Amaranthus retroflexus = assay: Test Example 5: herbicidal effect by foliage application, plastic box (symbol N); details: 320 g/ha, 3 weeks after application
Outline: as §1

Veronica persica [6] = assay: Test Example 5: herbicidal effect by foliage application, plastic box (symbol R); details: 320 g/ha, 3 weeks after application
Outline: as §1

rice plant = assay: Test Example 5: effect on crop by foliage application, plastic box (symbol b); details: 320 g/ha, 3 weeks after application
Outline: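 Greenhouse test at 25° C. to 30° C. Seeds of crops and weeds were spot-sown in boxes of sterilized diluvial soil under roughly 1.5 cm soil cover, then grown for foliage treatment.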

Lolium multiflorum Lam. [7] = assay: Test Example 4: herbicidal effect by soil treatment (symbol K); details: for K: Lolium multiflorum Lam., herbicidal effect grade: 320 g/ha
Outline: as §2

[8] = application herbicide amount 320 g/ha

Compound	M: Abutilon theophrasti, herbicidal effect (criteria 0-5) (Abutilon theophrasti)	P: Stellaria media, herbicidal effect (criteria 0-5) (Stellaria media)	J: Alopecurus myosuroides, herbicidal effect grade (Alopecurus myosuroides)	K: Lolium multiflorum Lam., herbicidal effect (criteria 0-5) (Lolium multiflorum Lam. [1])	I: Avena fatua, herbicidal effect grade (Avena fatua)	g: rapeseed, effect grade on crop (rapeseed)	Herbicidal effect grade, A: Echinochloa oryzacola Vasing. [2]	H: Echinochloa crus-galli var. crus-galli, herbicidal effect grade [3]	G: Setaria viridis, herbicidal effect (criteria 0-5) (Setaria viridis)	c: corn, effect grade on crop (corn)	R: Veronica persica, herbicidal effect grade (Veronica persica [4])	Herbicidal effect grade, A: Echinochloa oryzacola Vasing. [5]	N: Amaranthus retroflexus, herbicidal effect (criteria 0-5) (Amaranthus retroflexus)	M: Abutilon theophrasti, herbicidal effect grade (Abutilon theophrasti)	P: Stellaria media, herbicidal effect grade (Stellaria media)	K: Lolium multiflorum Lam., herbicidal effect grade (Lolium multiflorum Lam. [1])	G: Setaria viridis, herbicidal effect grade (Setaria viridis)	N: Amaranthus retroflexus, herbicidal effect grade (Amaranthus retroflexus)	R: Veronica persica, herbicidal effect grade (Veronica persica [6])	b: directly sowed rice plant, effect on crop grade (rice plant)	also measured
CC#CC(=O)OC1=C(c2c(C)cc(C)cc2C)C(=O)C(CC(C)=NOC)C1 (centres unmarked) [1-095]	4 (Herbicidal ratio of 70% or higher and lower than 90%)	2 (Herbicidal ratio of 20% or higher and lower than 40%)	5 (Herbicidal ratio of 90% or more (almost completely withered))	5 (Herbicidal ratio of 90% or more (almost completely withered))	3 (Herbicidal ratio of 40% or higher and lower than 70%)	4 (Herbicidal ratio of 70% or higher and lower than 90%)	5 (Herbicidal ratio of 90% or more (almost completely withered))	5 (Herbicidal ratio of 90% or more (almost completely withered))	5 (Herbicidal ratio of 90% or more (almost completely withered))	5 (Herbicidal ratio of 90% or more (almost completely withered))	1 (Herbicidal ratio of 5% or higher and lower than 20%)	5 (Herbicidal ratio of 90% or more (almost completely withered))	3 (Herbicidal ratio of 40% or higher and lower than 70%)	–	–	–	–	–	–	–	R: Veronica persica, herbicidal effect (criteria 0-5) (Veronica persica [6]): 3 (Herbicidal ratio of 40% or higher and lower than 70%); b: directly sowed rice plant, effect on crop (criteria 0-5) (rice plant): 5 (Herbicidal ratio of 90% or more (almost completely withered)); K: Lolium multiflorum Lam., herbicidal effect grade (Lolium multiflorum Lam. [7]): 5 (Herbicidal ratio of 90% or more (almost completely withered))
CON=C(C)CC1CC(OC(=O)COc2ccc(OC)cc2)=C(c2c(C)cc(C)cc2C)C1=O (centres unmarked) [1-069]	–	–	–	–	–	–	4 (Herbicidal ratio of 70% or higher and lower than 90%)	–	–	–	–	5 (Herbicidal ratio of 90% or more (almost completely withered))	–	5 (Herbicidal ratio of 90% or more (almost completely withered))	3 (Herbicidal ratio of 40% or higher and lower than 70%)	5 (Herbicidal ratio of 90% or more (almost completely withered))	5 (Herbicidal ratio of 90% or more (almost completely withered))	5 (Herbicidal ratio of 90% or more (almost completely withered))	3 (Herbicidal ratio of 40% or higher and lower than 70%)	5 (Herbicidal ratio of 90% or more (almost completely withered))	J (Alopecurus myosuroides) herbicidal effect grade (Alopecurus myosuroides; [8]): 5 (Herbicidal ratio of 90% or more (almost completely withered)); I (Avena fatua) herbicidal effect grade (Avena fatua; [8]): 3 (Herbicidal ratio of 40% or higher and lower than 70%); g (rapeseed) effect on crop grade (rapeseed; [8]): 4 (Herbicidal ratio of 70% or higher and lower than 90%); H (Echinochloa crus-galli var. crus-galli) herbicidal effect grade [3, 8]: 5 (Herbicidal ratio of 90% or more (almost completely withered)); c (corn) effect on crop grade (corn; [8]): 5 (Herbicidal ratio of 90% or more (almost completely withered)); R (Veronica persica) herbicidal effect grade (Veronica persica [4]; [8]): 0 (Herbicidal ratio of 5% or lower (almost no effect)); K (Lolium multiflorum Lam.) herbicidal effect grade (Lolium multiflorum Lam. [7]; [8]): 5 (Herbicidal ratio of 90% or more (almost completely withered))
CON=C(C)CC1CC(OC(=O)COCC(F)(F)F)=C(c2c(C)cc(C)cc2C)C1=O (centres unmarked) [1-092]	3 (Herbicidal ratio of 40% or higher and lower than 70%)	0 (Herbicidal ratio of 5% or lower (almost no effect))	4 (Herbicidal ratio of 70% or higher and lower than 90%)	5 (Herbicidal ratio of 90% or more (almost completely withered))	2 (Herbicidal ratio of 20% or higher and lower than 40%)	4 (Herbicidal ratio of 70% or higher and lower than 90%)	5 (Herbicidal ratio of 90% or more (almost completely withered))	5 (Herbicidal ratio of 90% or more (almost completely withered))	5 (Herbicidal ratio of 90% or more (almost completely withered))	5 (Herbicidal ratio of 90% or more (almost completely withered))	0 (Herbicidal ratio of 5% or lower (almost no effect))	5 (Herbicidal ratio of 90% or more (almost completely withered))	3 (Herbicidal ratio of 40% or higher and lower than 70%)	–	–	–	–	–	–	–	R: Veronica persica, herbicidal effect (criteria 0-5) (Veronica persica [6]): 0 (Herbicidal ratio of 5% or lower (almost no effect)); b: directly sowed rice plant, effect on crop (criteria 0-5) (rice plant): 5 (Herbicidal ratio of 90% or more (almost completely withered)); K: Lolium multiflorum Lam., herbicidal effect grade (Lolium multiflorum Lam. [7]): 5 (Herbicidal ratio of 90% or more (almost completely withered))
CON=C(CC1CC(O)=C(c2c(C)cc(Br)cc2C)C1=O)C(C)C (centres unmarked) [9-001]	–	–	–	–	–	–	4 (Herbicidal ratio of 70% or higher and lower than 90%)	–	–	–	–	4 (Herbicidal ratio of 70% or higher and lower than 90%)	–	0 (Herbicidal ratio of 5% or lower (almost no effect))	0 (Herbicidal ratio of 5% or lower (almost no effect))	5 (Herbicidal ratio of 90% or more (almost completely withered))	4 (Herbicidal ratio of 70% or higher and lower than 90%)	0 (Herbicidal ratio of 5% or lower (almost no effect))	0 (Herbicidal ratio of 5% or lower (almost no effect))	3 (Herbicidal ratio of 40% or higher and lower than 70%)	Herbicidal effect grade, J: Alopecurus myosuroides (Alopecurus myosuroides; [8]): 3 (Herbicidal ratio of 40% or higher and lower than 70%); Herbicidal effect grade, I: Avena fatua (Avena fatua; [8]): 0 (Herbicidal ratio of 5% or lower (almost no effect)); Effect on crop grade, g: rapeseed (rapeseed; [8]): 0 (Herbicidal ratio of 5% or lower (almost no effect)); Herbicidal effect grade, H: Echinochloa crus-galli var. crus-galli [3, 8]: 5 (Herbicidal ratio of 90% or more (almost completely withered)); Effect on crop grade, c: corn (corn; [8]): 0 (Herbicidal ratio of 5% or lower (almost no effect)); Herbicidal effect grade, R: Veronica persica (Veronica persica [4]; [8]): 0 (Herbicidal ratio of 5% or lower (almost no effect)); Herbicidal effect grade, K: Lolium multiflorum Lam. (Lolium multiflorum Lam. [7]; [8]): 5 (Herbicidal ratio of 90% or more (almost completely withered))
CC(CC1CC(O)=C(c2c(C)cc(C)cc2C)C1=O)=NOc1ccccc1 (centres unmarked) [1-057]	–	–	–	–	–	–	2 (Herbicidal ratio of 20% or higher and lower than 40%)	–	–	–	–	5 (Herbicidal ratio of 90% or more (almost completely withered))	–	1 (Herbicidal ratio of 5% or higher and lower than 20%)	0 (Herbicidal ratio of 5% or lower (almost no effect))	5 (Herbicidal ratio of 90% or more (almost completely withered))	3 (Herbicidal ratio of 40% or higher and lower than 70%)	0 (Herbicidal ratio of 5% or lower (almost no effect))	0 (Herbicidal ratio of 5% or lower (almost no effect))	3 (Herbicidal ratio of 40% or higher and lower than 70%)	J (Alopecurus myosuroides) herbicidal effect grade (Alopecurus myosuroides; [8]): 4 (Herbicidal ratio of 70% or higher and lower than 90%); I (Avena fatua) herbicidal effect grade (Avena fatua; [8]): 0 (Herbicidal ratio of 5% or lower (almost no effect)); g (rapeseed) effect on crop grade (rapeseed; [8]): 4 (Herbicidal ratio of 70% or higher and lower than 90%); H (Echinochloa crus-galli var. crus-galli) herbicidal effect grade [3, 8]: 4 (Herbicidal ratio of 70% or higher and lower than 90%); c (corn) effect on crop grade (corn; [8]): 0 (Herbicidal ratio of 5% or lower (almost no effect)); R (Veronica persica) herbicidal effect grade (Veronica persica [4]; [8]): 0 (Herbicidal ratio of 5% or lower (almost no effect)); K (Lolium multiflorum Lam.) herbicidal effect grade (Lolium multiflorum Lam. [7]; [8]): 5 (Herbicidal ratio of 90% or more (almost completely withered))

Reference: patent US11000033B2, “Ketone or oxime compound, and herbicide” (NISSAN CHEMICAL CORPORATION, priority 2014, dated 2021)
